# Source: patent US12427157B2, “Methods for treatment of diseases involving acidic or hypoxic diseased tissues” (Cybrexa 1, Inc., priority 2018, dated 2025)
# Residues, ends and D or L forms follow the SMILES beside them. *: point of attachment. X6 = CNCc1ccc(-c2c3c4c(cc(F)cc4n2[C@@H](CC(C)C)NC(=O)OCCS*)C(=O)NCC3)cc1; X20 = C[C@]12CCCN1C1=NNC(=O)c3cc(F)cc4c3c1c(n4CNC(=O)OCCS*)C2
# Biological target: PARP (Homo sapiens, UniProt P09874)
# Assay: Enzymatic Assay 2: HT Universal Chemiluminescent PARP Assay of cleaved compounds;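 also: PARP reaction with activated DNA run 1 h at room temperature, product detected via streptavidin-HRP and luminescence endpoint reading on a plate reader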
# Conditions: read-out: IC50 Enzymatic Assay 2; Examples cleaved per Example A (crude cleavage solution); R^8H starting materials as such
# Chain of PARP (P09874 whole entry): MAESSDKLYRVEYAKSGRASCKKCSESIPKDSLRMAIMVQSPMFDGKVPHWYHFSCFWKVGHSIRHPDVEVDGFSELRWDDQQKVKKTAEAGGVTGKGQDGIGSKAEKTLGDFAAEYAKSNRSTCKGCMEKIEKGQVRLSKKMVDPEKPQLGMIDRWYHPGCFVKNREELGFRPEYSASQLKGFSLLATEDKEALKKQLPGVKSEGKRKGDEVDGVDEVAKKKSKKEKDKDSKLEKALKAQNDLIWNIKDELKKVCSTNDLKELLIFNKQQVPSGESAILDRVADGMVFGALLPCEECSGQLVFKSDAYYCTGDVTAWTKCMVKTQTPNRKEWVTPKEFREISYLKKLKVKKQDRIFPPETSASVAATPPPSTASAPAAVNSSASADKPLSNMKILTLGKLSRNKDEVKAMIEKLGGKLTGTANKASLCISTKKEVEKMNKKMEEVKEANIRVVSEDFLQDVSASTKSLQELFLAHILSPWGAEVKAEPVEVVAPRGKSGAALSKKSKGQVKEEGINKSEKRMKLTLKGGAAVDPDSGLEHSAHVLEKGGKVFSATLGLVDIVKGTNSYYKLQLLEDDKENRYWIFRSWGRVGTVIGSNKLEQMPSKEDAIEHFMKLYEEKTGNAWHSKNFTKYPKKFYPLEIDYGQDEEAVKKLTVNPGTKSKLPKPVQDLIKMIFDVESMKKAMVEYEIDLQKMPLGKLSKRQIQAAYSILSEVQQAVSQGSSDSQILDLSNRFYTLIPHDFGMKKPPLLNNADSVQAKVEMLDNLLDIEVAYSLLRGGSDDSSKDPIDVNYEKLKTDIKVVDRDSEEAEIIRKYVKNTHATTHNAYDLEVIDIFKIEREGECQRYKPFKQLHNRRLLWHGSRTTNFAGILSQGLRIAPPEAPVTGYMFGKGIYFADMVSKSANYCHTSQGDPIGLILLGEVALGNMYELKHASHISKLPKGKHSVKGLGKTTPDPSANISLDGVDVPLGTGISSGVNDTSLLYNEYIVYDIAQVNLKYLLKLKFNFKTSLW
smiles,measurement,value
CC[C@H](C)[C@H](NC(=O)[C@@H]1CCCN1C(=O)[C@H](CC(N)=O)NC(=O)[C@H](CCC(N)=O)NC(=O)[C@H](CCC(=O)O)NC(=O)[C@H](C)N)C(=O)N[C@@H](Cc1ccc(O)cc1)C(=O)N[C@@H](Cc1c[nH]c2ccccc12)C(=O)N[C@@H](C)C(=O)N[C@@H](CCCNC(=N)N)C(=O)N[C@@H](Cc1ccc(O)cc1)C(=O)N[C@@H](C)C(=O)N[C@@H](CC(=O)O)C(=O)N[C@@H](Cc1c[nH]c2ccccc12)C(=O)N[C@@H](CC(C)C)C(=O)N[C@@H](Cc1ccccc1)C(=O)N[C@H](C(=O)N[C@H](C(=O)N1CCC[C@H]1C(=O)N[C@@H](CC(C)C)C(=O)N[C@@H](CC(C)C)C(=O)N[C@@H](CC(C)C)C(=O)N[C@@H](CC(C)C)C(=O)N[C@@H](CC(=O)O)C(=O)N[C@@H](CC(C)C)C(=O)N[C@@H](C)C(=O)N[C@@H](CC(C)C)C(=O)N[C@@H](CC(C)C)C(=O)N[C@H](C(=O)N[C@@H](CC(=O)O)C(=O)N[C@@H](C)C(=O)N[C@@H](CC(=O)O)C(=O)N[C@@H](CCC(=O)O)C(=O)N[C@@H](CSSCCOC(=O)N[C@H](CC(C)C)n1c(-c2ccc(CNC)cc2)c2c3c(cc(F)cc31)C(=O)NCC2)C(=O)NCC(=O)O)C(C)C)[C@@H](C)O)[C@@H](C)O [Example 35] (H-AEQNPIYWARYADWLFTTPLLLLDLALLVDADEC(X6)G-OH; N-terminus and C-terminus assumed),IC50,3.1 nM
CC(C)C[C@H](NC(=O)[C@H](Cc1ccc(O)cc1)NC(=O)[C@H](C)NC(=O)[C@H](CCCNC(=N)N)NC(=O)[C@H](Cc1c[nH]c2ccccc12)NC(=O)[C@@H]1CCCN1C(=O)[C@H](CC(N)=O)NC(=O)[C@H](CCC(N)=O)NC(=O)[C@H](CC(=O)O)NC(=O)[C@H](CC(=O)O)NC(=O)[C@H](C)N)C(=O)N[C@@H](CC(=O)O)C(=O)N[C@@H](CC(C)C)C(=O)N[C@@H](CC(C)C)C(=O)N[C@@H](Cc1ccccc1)C(=O)N1CCC[C@H]1C(=O)N[C@H](C(=O)N[C@@H](CC(=O)O)C(=O)N[C@H](C(=O)N[C@@H](CC(C)C)C(=O)N[C@@H](CC(C)C)C(=O)N[C@@H](CC(C)C)C(=O)N[C@@H](CC(=O)O)C(=O)N[C@@H](CC(C)C)C(=O)N[C@@H](CC(C)C)C(=O)N[C@@H](Cc1c[nH]c2ccccc12)C(=O)N[C@@H](CSSc1ccc(COC(=O)N(C)Cc2ccc(-c3[nH]c4cc(F)cc5c4c3CCNC5=O)cc2)cc1)C(=O)NCC(=O)O)[C@@H](C)O)[C@@H](C)O [Example 36],IC50,2.2 nM
CC(C)C[C@H](NC(=O)[C@H](Cc1ccc(O)cc1)NC(=O)[C@H](C)NC(=O)[C@H](CCCNC(=N)N)NC(=O)[C@H](Cc1c[nH]c2ccccc12)NC(=O)[C@@H]1CCCN1C(=O)[C@H](CC(N)=O)NC(=O)[C@H](CCC(N)=O)NC(=O)[C@H](CC(=O)O)NC(=O)[C@H](CC(=O)O)NC(=O)[C@H](C)N)C(=O)N[C@@H](CC(=O)O)C(=O)N[C@@H](CC(C)C)C(=O)N[C@@H](CC(C)C)C(=O)N[C@@H](Cc1ccccc1)C(=O)N1CCC[C@H]1C(=O)N[C@H](C(=O)N[C@@H](CC(=O)O)C(=O)N[C@H](C(=O)N[C@@H](CC(C)C)C(=O)N[C@@H](CC(C)C)C(=O)N[C@@H](CC(C)C)C(=O)N[C@@H](CC(=O)O)C(=O)N[C@@H](CC(C)C)C(=O)N[C@@H](CC(C)C)C(=O)N[C@@H](Cc1c[nH]c2ccccc12)C(=O)N[C@@H](CC(=O)O)C(=O)N[C@@H](C)C(=O)N[C@@H](CC(=O)O)C(=O)N[C@@H](CCC(=O)O)C(=O)N[C@@H](CSSc1ccc(COC(=O)N(C)Cc2ccc(-c3[nH]c4cc(F)cc5c4c3CCNC5=O)cc2)cc1)C(=O)NCC(=O)O)[C@@H](C)O)[C@@H](C)O [Example 37],IC50,3.1 nM
CC[C@H](C)[C@H](NC(=O)[C@@H]1CCCN1C(=O)[C@H](CC(N)=O)NC(=O)[C@H](CCC(N)=O)NC(=O)[C@H](CCC(=O)O)NC(=O)[C@H](C)N)C(=O)N[C@@H](Cc1ccc(O)cc1)C(=O)N[C@@H](Cc1c[nH]c2ccccc12)C(=O)N[C@@H](C)C(=O)N[C@@H](CCCNC(=N)N)C(=O)N[C@@H](Cc1ccc(O)cc1)C(=O)N[C@@H](C)C(=O)N[C@@H](CC(=O)O)C(=O)N[C@@H](Cc1c[nH]c2ccccc12)C(=O)N[C@@H](CC(C)C)C(=O)N[C@@H](Cc1ccccc1)C(=O)N[C@H](C(=O)N[C@H](C(=O)N1CCC[C@H]1C(=O)N[C@@H](CC(C)C)C(=O)N[C@@H](CC(C)C)C(=O)N[C@@H](CC(C)C)C(=O)N[C@@H](CC(C)C)C(=O)N[C@@H](CC(=O)O)C(=O)N[C@@H](CC(C)C)C(=O)N[C@@H](C)C(=O)N[C@@H](CC(C)C)C(=O)N[C@@H](CC(C)C)C(=O)N[C@H](C(=O)N[C@@H](CC(=O)O)C(=O)N[C@@H](C)C(=O)N[C@@H](CC(=O)O)C(=O)N[C@@H](CCC(=O)O)C(=O)N[C@@H](CSSCCOC(=O)NCn1c2c3c4c(cc(F)cc41)C(=O)NN=C3N1CCC[C@]1(C)C2)C(=O)NCC(=O)O)C(C)C)[C@@H](C)O)[C@@H](C)O [Example 38] (H-AEQNPIYWARYADWLFTTPLLLLDLALLVDADEC(X20)G-OH; N-terminus and C-terminus assumed),IC50,2.8 nM
CC(C)C[C@H](NC(=O)[C@H](Cc1ccc(O)cc1)NC(=O)[C@H](C)NC(=O)[C@H](CCCNC(=N)N)NC(=O)[C@H](Cc1c[nH]c2ccccc12)NC(=O)[C@@H]1CCCN1C(=O)[C@H](CC(N)=O)NC(=O)[C@H](CCC(N)=O)NC(=O)[C@H](CC(=O)O)NC(=O)[C@H](CC(=O)O)NC(=O)[C@H](C)N)C(=O)N[C@@H](CC(=O)O)C(=O)N[C@@H](CC(C)C)C(=O)N[C@@H](CC(C)C)C(=O)N[C@@H](Cc1ccccc1)C(=O)N1CCC[C@H]1C(=O)N[C@H](C(=O)N[C@@H](CC(=O)O)C(=O)N[C@H](C(=O)N[C@@H](CC(C)C)C(=O)N[C@@H](CC(C)C)C(=O)N[C@@H](CC(C)C)C(=O)N[C@@H](CC(=O)O)C(=O)N[C@@H](CC(C)C)C(=O)N[C@@H](CC(C)C)C(=O)N[C@@H](Cc1c[nH]c2ccccc12)C(=O)N[C@@H](CSSC1(COC(=O)N(C)Cc2ccc(-c3[nH]c4cc(F)cc5c4c3CCNC5=O)cc2)CCC1)C(=O)NCC(=O)O)[C@@H](C)O)[C@@H](C)O [Example 44],IC50,1.5 nM
CC(C)C[C@H](NC(=O)[C@H](Cc1ccc(O)cc1)NC(=O)[C@H](C)NC(=O)[C@H](CCCNC(=N)N)NC(=O)[C@H](Cc1c[nH]c2ccccc12)NC(=O)[C@@H]1CCCN1C(=O)[C@H](CC(N)=O)NC(=O)[C@H](CCC(N)=O)NC(=O)[C@H](CC(=O)O)NC(=O)[C@H](CC(=O)O)NC(=O)[C@H](C)N)C(=O)N[C@@H](CC(=O)O)C(=O)N[C@@H](CC(C)C)C(=O)N[C@@H](CC(C)C)C(=O)N[C@@H](Cc1ccccc1)C(=O)N1CCC[C@H]1C(=O)N[C@H](C(=O)N[C@@H](CC(=O)O)C(=O)N[C@H](C(=O)N[C@@H](CC(C)C)C(=O)N[C@@H](CC(C)C)C(=O)N[C@@H](CC(C)C)C(=O)N[C@@H](CC(=O)O)C(=O)N[C@@H](CC(C)C)C(=O)N[C@@H](CC(C)C)C(=O)N[C@@H](Cc1c[nH]c2ccccc12)C(=O)N[C@@H](CC(=O)O)C(=O)N[C@@H](C)C(=O)N[C@@H](CC(=O)O)C(=O)N[C@@H](CCC(=O)O)C(=O)N[C@@H](CSS[C@H](C)COC(=O)N1CCC[C@@H](c2ccc(-n3cc4cccc(C(N)=O)c4n3)cc2)C1)C(=O)NCC(=O)O)[C@@H](C)O)[C@@H](C)O [Example 45],IC50,3.2 nM
